The subject of series [1] is Caco-2 cells. Kind of series: MTT assay, non-toxic dose range. To be noted: 4 h, positive control. Format: cell-based, human. The procedure: The Caco-2 cells were seeded into 96-well plates as they were in logarithmic growth phase. Each well was added with 100 μL of the cell suspension (8.0 × 10^3 cells/mL) and incubated in 5% CO2 and constant temperature (37 °C) and humidity in the incubator. […] The cells were incubated under the same conditions for 4 h; then, 100 μL of 3-(4,5-dimethylthiazolzyl)-2,5-diphenyl tetrazolium bromide (MTT, Amresco, Radnor, PA) solution at the concentration of 0.5 mg/mL took the place of HBSS. After the cells were incubated under the same conditions for 4 h, the supernatant was replaced by 150 μL of dimethyl sulphoxide (DMSO, Sigma Chemical Co., Deisenhofen, Germany); then, the cells were shaken for 10 min. The absorption of the samples was measured on a microplate reader (BioTek Instruments, Inc., Winooski, VT) at the wavelength of 570 nm.
The following formula was used to calculate the cell survival rate=A/A0×100%, wherein, A represented the average absorbance value of the experiment groups, and A0 represented the average absorbance value of the control group.
(Formazan colour is commonly taken as a measure of viable cells.)

For series [2] the following is noted: previous study, cited from earlier work.
Series [3] in a line: Absorption experiment with everted gut sacs. To be noted: Sprague-Dawley, rat.
Series [4] has as its system everted gut sacs (jejunum). Kind of series: Absorption experiment with everted gut sacs. The conditions noted are these: for transport percentage: Everted gut sacs, AP→BL; for After transported with everted gut sacs: intestinal bacterial transformed AEOF.
Series [5] is described as follows: Transport experiment with Caco-2 cell monolayers. To be noted: human, Caco-2, Papp, Caco-2 cell monolayers; for Papp at 180 min, 10 mg/mL: extract 10 mg/mL; for Papp at 180 min, 20 mg/mL: extract 20 mg/mL; for Papp at 180 min, 30 mg/mL: extract 30 mg/mL.
Procedure: (§1) The Caco-2 cells were cultured in the culture medium consisting of Dulbecco’s Modified Eagle Medium (DMEM, Gibco Inc., Grand Island, CA)-fetal bovine serum (FBS, Gibco Inc., Grand Island, CA)-nonessential amino acids (NEAA, Corning Costar, Cambridge, MA)-‘penicillin-streptomycin’ (Corning Costar, Cambridge, MA) (100:10:1:1, v/v/v/v) in 25 cm^2 flasks, which were incubated in 5% CO2 and constant temperature (37 °C) and humidity in the incubator. The culture medium was replaced every 2 or 3 days, and the cells were split 1:2 or 1:3 to conduct passage when they reached 80% confluence.
(§2) About 1.5 mL of the culture medium was added into the basal (BL) side of each well of the 12-well Transwell plates (insert diameter 12 mm, pore size 3.0 μm, membrane growth area 1.12 cm^2, Corning Costar, Cambridge, MA), and 0.5 mL of the Caco-2 cell suspension at the density of 2.0 × 10^5 cells/mL was seeded into the apical (AP) side of each insert. The cells were incubated in 5% CO2 and constant temperature (37 °C) and humidity in the incubator. The culture medium in both AP and BL sides was replaced every other day in the first week, then that in AP side was replaced every day and that in BL side was replaced every other day. The cells would differentiate and form a confluent monolayer. The integrity and viability of the cell monolayers were evaluated by measuring transepithelial electrical resistance (TEER) values in the culture medium at 37 °C using a Millicell®-ERS system (Millipore Corp., Bedford, MA), and only the inserts with the TEER above 600 Ω/cm^2 on day 21 were selected to perform the transport experiment.
(§3) About 200 μL of the solution in the receiving chambers was collected at 30, 60, 90, 120, 150, and 180 min, respectively, and then the same volume of HBSS was added. All samples were stored at −20 °C and filtered through a 0.45 μm membrane filter for HPLC analysis.
(§4) The HPLC conditions used for the analysis of the intestinal bacterial transformed AEOF before and after transport experiment was the same as above.
(§5) The transport percentage (%) was calculated using the formula transport percentage (%) = dQ/(C0 × V) × 100, wherein, V (mL) represented the volume of the donor compartment.
The test system of series [6] is Caco-2 cell monolayers. Kind of series: Transport experiment with Caco-2 cell monolayers. To be noted: for transport percentage: Caco-2 cell monolayers; for After transported with Caco-2 cell monolayers: intestinal bacterial transformed AEOF. (In general: Caco-2 monolayers are a common model of the intestinal barrier.)
Procedure: as §1, §2, §3, §4, §5
Series [7] deals with activated intestinal bacteria. Kind of series: Intestinal bacterial transformation of AEOF. The series is classed as in vitro ADME, human. The conditions noted are these: for After transformed by intestinal bacteria / Before transformed by intestinal bacteria: content in the extract; for transformation by intestinal bacteria (in words): in AEOF 15.0, 30.0, 60.0 mg/mL, up to 72 h, single person derived- or multiple people-derived intestinal bacteria. The procedure:
Each 3 g of fresh feces from 3 healthy men and 3 healthy women of 23–25 years old was suspended in 200 mL of general anaerobic medium (GAM, including L-cystine hydrochloride, soluble starch, pepsin, tryptone, peptone, soy peptone, serum powder, yeast extract, beef extract, and beef liver extract powder purchased from Beijing Aoboxing Biotechnology Co., Ltd, Beijing, China) broth prepared as per a literature (Yang & Xu [2011]), respectively, and cultured in an anaerobic incubator (Shanghai Cimomedical Appliance Co., Ltd., Shanghai, China) at 37 °C for 24 h (Tsuchihashi et al. [2009]). […] Each 100 μL of the activated intestinal bacteria from the 6 volunteers were added into 11.4 mL of GAM, mixed adequately, and incubated in the same conditions as previously to obtain the mixture of activated intestinal bacteria. About 0.4513, 0.9026, and 1.8052 g of AEOF were dissolved in 30 mL of GAM on a super clean bench (Beijing Great Wall Air Purification Co. Ltd., Beijing, China), respectively, to generate the experimental groups. Then, the triplicate GAM containing AEOF was divided into 24 screw-cap test tubes, and each screw-cap test tube had 3 mL of the GAM and 100 μL of the activated intestinal bacteria and the mixture of activated intestinal bacteria, respectively. They were incubated under the same condition, and the test tubes of each concentration in triplicate were removed from the anaerobic incubator at 0, 2, 4, 6, 12, 24, 48, and 72 h. About 100 μL of the bacterial suspension was replaced with GAM to obtain the control group. The GAM absent of the AEOF was used as the blank group. […] About 300 μL of the supernatant was collected, filtered through a 0.45 μm membrane filter, and stored at −20 °C before HPLC analysis.
The HPLC analysis was performed using a Waters 1500 series (Waters Business Operations, Milford, MA) equipped with a 1525 binary HPLC pump, an on-line degasser, a manual injector and a 2489 UV/Visible detector. […] The temperature was set at 35 °C and the UV detecting wavelengths were 254 and 365 nm. The mobile phase consisted of acetonitrile (HPLC grade, Fisher Co., Pittsburgh, PA) (A) and 1.0% acetic acid (Beijing Chemical Works, Beijing, China) in purified water (v/v) (B), and the gradient elution program was as follows: 5–10% A (0–5 min), 10–20% A (5–10 min), 20–25% A (10–22 min), 25–40% A (22–35 min), 40–50% A (35–40 min), and 50–5% A (40–42 min) at a flow rate of 1.0 mL/min. The volume injected was 5 μL.

Where [8] appears, read: first of three lines per compound (lowest concentration; 10, 20, 30 mg/mL).
Where [9] appears, read: second of three lines per compound (middle concentration, not given).
[10] abbreviates: third of three lines per compound (highest concentration, not given).
[11] abbreviates: first of three lines per compound (lowest extract concentration).
Where [12] appears, read: first of three lines per compound (lowest extract concentration; AEOF 15, 30, 60 mg/mL).
Where [13] appears, read: second of three lines per compound (middle extract concentration, not given).
Setting [14] is: third of three lines per compound (highest extract concentration, not given).

Entries after “also recorded” stand apart in the source; their conditions may differ. Where two headings read alike, the source gives them in different places.

With `CC(=O)O[C@H]1C(=O)[C@@]2(C)[C@H]([C@H](OC(=O)c3ccccc3)[C@]3(O)C[C@H](OC(=O)[C@H](O)[C@@H](NC(=O)c4ccccc4)c4ccccc4)C(C)=C1C3(C)C)[C@]1(OC(C)=O)CO[C@@H]1C[C@@H]2O` [paclitaxel], the “survival rate of the Caco-2 cells” value in series [1] (0.02 mg/L) came out at 67.3%; in series [1] (0.04 mg/L), 45.5%; in series [1] (0.08 mg/L) it was 37.4%.

Broadly, the Papp is a coefficient for how fast a substance crosses the barrier. High values mean ready permeation, low ones poor permeation. Consider `COc1ccc(C(=O)O)cc1OC` [veratric acid], for which, in series [2] (ref Liu et al. [2014], Wu et al. [2014]), the absorption mechanism result is reported as “mainly through passive diffusion”. The Papp at 180 min, 10 mg/mL in series [3] came to 127 ± 4 ×10⁻⁶ cm/s; in series [5] (AP→BL) it was 104 ± 5 ×10⁻⁶ cm/s; in series [5] (BL→AP), 236 ± 5 ×10⁻⁶ cm/s. Besides, the Papp at 180 min, 20 mg/mL in series [3] turned out to be 111 ± 7 ×10⁻⁶ cm/s; in series [5] (AP→BL), 105 ± 15 ×10⁻⁶ cm/s; in series [5] (BL→AP), 210 ± 4 ×10⁻⁶ cm/s. Also, the Papp at 180 min, 30 mg/mL in series [3] is 142 ± 3 ×10⁻⁶ cm/s; in series [5] (AP→BL) it was 109 ± 4 ×10⁻⁶ cm/s; in series [5] (BL→AP), 199 ± 4 ×10⁻⁶ cm/s. Also, the transport percentage in series [4] (extract 10 mg/mL) came to 27.04%; in series [4] (extract 20 mg/mL), 21.02%; in series [4] (extract 30 mg/mL), 28.12%; in series [6] (extract 10 mg/mL, AP→BL), 109.67%; in series [6] (extract 10 mg/mL, BL→AP), 95.04%; in series [6] (extract 20 mg/mL, AP→BL), 127.58%. Besides, the transport percentage worked out at 84.75% in series [6] (extract 20 mg/mL, BL→AP); 131.58% in series [6] (extract 30 mg/mL, AP→BL); 80.33% in series [6] (extract 30 mg/mL, BL→AP). Also, the entries for the “After transported with everted gut sacs” value in series [4] (setting [8]), in series [4] (setting [9]) and in series [4] (setting [10]) were 0.59 µg/mL, 1.64 µg/mL and 2.02 µg/mL, respectively. In addition, the “After transported with Caco-2 cell monolayers” value in series [6] (setting [8]) stood at 0.92 µg/mL; in series [6] (setting [9]), 1.62 µg/mL; in series [6] (setting [10]) it was 2.79 µg/mL. Also, the “After transformed by intestinal bacteria” value in series [7] (setting [11]) was found to be 3.22 µg/mL; in series [7] (setting [13]) it was 7.44 µg/mL; in series [7] (setting [14]), 12.78 µg/mL. Further, the “Before transformed by intestinal bacteria” value in series [7] (setting [12]) was 2.81 µg/mL; in series [7] (setting [13]), 6.10 µg/mL; in series [7] (setting [14]), 13.39 µg/mL. In series [7], the “transformation by intestinal bacteria (in words)” value is “not transformed; also recorded: not changed”.

Turning to `O=c1cc(-c2ccc(O)cc2)oc2c([C@@H]3O[C@H](CO)[C@@H](O)[C@H](O)[C@H]3O)c(O)cc(O)c12` [vitexin], in series [2] (ref Liu et al. [2015]), the absorption mechanism entry was “transporter mediated efflux in addition to passive diffusion”. Moreover, the Papp at 180 min, 10 mg/mL in series [3] is 26 ± 2.8 ×10⁻⁶ cm/s; in series [5] (AP→BL), 39.6 ± 0.5 ×10⁻⁶ cm/s; in series [5] (BL→AP), 28.3 ± 2.7 ×10⁻⁶ cm/s. Besides, the results for the Papp at 180 min, 20 mg/mL in series [3], in series [5] (AP→BL) and in series [5] (BL→AP) were 15.5 ± 1.1 ×10⁻⁶ cm/s, 13.6 ± 1.5 ×10⁻⁶ cm/s and 16.4 ± 0.5 ×10⁻⁶ cm/s, respectively. Also, the Papp at 180 min, 30 mg/mL in series [3] was 38.1 ± 5 ×10⁻⁶ cm/s; in series [5] (AP→BL), 33.8 ± 2.8 ×10⁻⁶ cm/s; in series [5] (BL→AP), 21.6 ± 0.5 ×10⁻⁶ cm/s. Further, the transport percentage in series [4] (extract 10 mg/mL) stood at 5.55%; in series [4] (extract 20 mg/mL) it was 2.94%; in series [4] (extract 30 mg/mL) it was 7.55%; in series [6] (extract 10 mg/mL, AP→BL) it was 47.97%; in series [6] (extract 10 mg/mL, BL→AP), 11.43%; in series [6] (extract 20 mg/mL, AP→BL) it was 16.41%. Further, the transport percentage in series [6] (extract 20 mg/mL, BL→AP) came out at 6.61%; in series [6] (extract 30 mg/mL, AP→BL) it was 40.90%; in series [6] (extract 30 mg/mL, BL→AP), 8.74%. In addition, the “After transported with everted gut sacs” value stood at 0.11 µg/mL in series [4] (setting [8]), 0.14 µg/mL in series [4] (setting [9]) and 0.50 µg/mL in series [4] (setting [10]). Moreover, the “After transported with Caco-2 cell monolayers” value in series [6] (setting [8]) is 0.19 µg/mL; in series [6] (setting [9]), 0.23 µg/mL; in series [6] (setting [10]) it was 0.39 µg/mL. Further, the figures for the “After transformed by intestinal bacteria” value in series [7] (setting [11]), in series [7] (setting [13]) and in series [7] (setting [14]) were 3.10 µg/mL, 5.70 µg/mL and 11.19 µg/mL, respectively. Besides, the results for the “Before transformed by intestinal bacteria” value in series [7] (setting [12]), in series [7] (setting [13]) and in series [7] (setting [14]) were 2.98 µg/mL, 5.11 µg/mL and 11.04 µg/mL, respectively. The “transformation by intestinal bacteria (in words)” value in series [7] was “not transformed; also recorded: not changed”.

These data come from article PMC6130518, “Investigation of the effective components of the flowers of Trollius chinensis from the perspectives of intestinal bacterial transformation and intestinal absorption” (Pharmaceutical Biology, 2017).
